Measured values reported in patent publication US20190135887A1, “METABOLICALLY STABLE SPEXIN PEPTIDE ANALOGS” (UNIVERSITÉ DE STRASBOURG, priority 2016, published 2019).
Like-named read-outs stand apart in the source and are kept apart here. Peptide text beside a SMILES is read from it. * marks the point of attachment. Propanoyl(3-C8F17) = O=C(CCC(F)(F)C(F)(F)C(F)(F)C(F)(F)C(F)(F)C(F)(F)C(F)(F)C(F)(F)F)*

Tests used:
[1] = biological target: T1, GalR2 (Homo sapiens, UniProt O43603); test: Calcium mobilization in CHO cells expressing GalR2; type: cell-based
T1 construct: expressed in transfected cells; host or cells: CHO cells
T1 sequence (O43603 1-387): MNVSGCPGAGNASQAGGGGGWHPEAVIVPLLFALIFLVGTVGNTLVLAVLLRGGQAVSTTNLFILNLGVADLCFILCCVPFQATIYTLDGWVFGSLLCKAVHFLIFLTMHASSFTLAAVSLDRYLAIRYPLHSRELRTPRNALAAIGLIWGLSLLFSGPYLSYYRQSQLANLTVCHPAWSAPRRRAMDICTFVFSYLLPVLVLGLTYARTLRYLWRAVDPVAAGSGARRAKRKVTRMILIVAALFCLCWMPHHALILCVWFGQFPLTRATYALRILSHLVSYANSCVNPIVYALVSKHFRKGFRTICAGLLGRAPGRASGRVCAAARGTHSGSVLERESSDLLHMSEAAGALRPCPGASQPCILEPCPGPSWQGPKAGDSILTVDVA

[2] = biological target: T2, human GALR1 (Homo sapiens, UniProt P47211); test: Forskolin-induced cAMP accumulation, GloSensor cAMP assay in HEK293 cells; type: cell-based; conditions: HEK293 cells stably expressing GalR1, 1 μM compound
T2 construct: expressed in transfected cells; transiently transfected with pGloSensor-22F
T2 sequence (P47211 1-349): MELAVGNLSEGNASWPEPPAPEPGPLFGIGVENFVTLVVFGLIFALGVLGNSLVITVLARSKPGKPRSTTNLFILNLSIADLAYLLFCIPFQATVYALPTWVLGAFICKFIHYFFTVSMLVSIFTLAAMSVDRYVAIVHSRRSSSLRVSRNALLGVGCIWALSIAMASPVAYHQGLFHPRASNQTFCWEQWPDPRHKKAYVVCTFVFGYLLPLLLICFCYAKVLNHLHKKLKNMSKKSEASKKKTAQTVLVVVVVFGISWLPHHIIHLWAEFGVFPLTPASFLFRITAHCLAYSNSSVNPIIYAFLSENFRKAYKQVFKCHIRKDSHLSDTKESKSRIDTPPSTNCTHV
Protocol: The effects were examined by using the GloSensor™ cAMP Assay according to manufacturer recommendations (Promega, Madison Wis., USA) with a few modifications. […] Following pre-equilibration for 2 h at 25° C., D-luciferin-loaded cells were distributed (100,000 cells per well) in a white 96-well plate and kinetic recordings of their luminescence level were acquired using a FlexStation II (Molecular Devices, Sunnyvale Calif., USA). Compounds to be tested were injected at various concentrations 10 min before forskolin addition (0.5 μM final concentration) and readings were pursued for 30 min. Experiments were conducted at 25° C. in the presence of 0.1 mM IBMX to prevent the degradation of cAMP by phospodiesterases.

[3] = Non-specific adsorption to Eppendorf protein LoBind tubes; conditions: 10 μM in HEPES/BSA buffer
Protocol: The propensity of spexin analogs to bind to Eppendorf protein LoBind tubes was evaluated.
A solution of 10 μM of spexin analogs in solution in HEPES/BSA buffer was added to Eppendorf protein LoBind tubes, stirred for 5 min and vortexed for 2 min. The supernatant was removed from the tube and acetonitrile was added to dissolve the compound adsorbed to the plastic. The amount of peptide recovered was then evaluated by HPLC-MS/MS following the same protocol than above described for plasma stability analysis. The non-specific adsorption of peptides (%) was calculated by comparing the peak area of each compound recovered to that obtained with the same compound in DMSO (prevent the adsorption of the compounds to plastic).

[4] = Human plasma stability; type: in vitro ADME; conditions: 37° C., 2 h incubation, read-out: Human plasma stability (t1/2)
Protocol: This procedure is designed to determine the stability of a test compound in blood or plasma from human or animal species in a 96-well plate format. The test compound is quantified at 5 time points by HPLC-MS/MS analysis. Test concentration: 1 μM with a final DMSO concentration of 0.5%. Experimental protocol: Blood or plasma are pre-warmed at 37° C. water bath for 5 min, followed by addition of the test compound. The incubation is performed in a 37° C. water bath for 2 h. An aliquot of the incubation mixture is transferred to acetonitrile at 0, 0.5, 1, 1.5 and 2 h, respectively. Samples are then mixed and centrifuged. Supernatants are used for HPLC-MS/MS analysis. Reference compounds Propoxycaine and propantheline are tested simultaneously with the test compound in each assay. Analytical methods Samples are analyzed by HPLC-MS/MS using selected reaction monitoring. The HPLC system consists of a binary LC pump with autosampler, a C-18 column, and a gradient. Conditions may be adjusted as necessary. Data analysis Peak areas corresponding to the test compound are recorded. The compound remaining (%) is calculated by comparing the peak area at each time point to time zero. The half-life is calculated from the slope of the initial linear range of the logarithmic curve of compound remaining (%) vs. time, assuming first order kinetics.

[5] = biological target: T3, human galanin GAL2 receptor (Homo sapiens, UniProt O43603); test: Radioligand binding assay, [125I]galanin, transfected CHO cell membranes; conditions: read-out: Affinity % of inhibition at 100 nM
T3 construct: expressed in transfected cells; host or cells: CHO cells (membrane homogenates)
T3 sequence (O43603 1-387): T1 sequence (O43603 1-387)
Protocol: Following incubation, the samples are filtered rapidly under vacuum through glass fiber filters (GF/B, Packard) presoaked with 0.3% PEI and rinsed several times with ice-cold 50 mM Tris-HCl using a 96-sample cell harvester (Unifilter, Packard). The filters are dried then counted for radioactivity in a scintillation counter (Topcount, Packard) using a scintillation cocktail (Microscint 0, Packard). The results are expressed as a percent inhibition of the control radioligand specific binding.

[6] = Solubility in water by visual observation; type: physicochemical; conditions: dissolution in water to reach 100 μM
Protocol: The resulting solution was vortexed 1 min following by 1 min in bath sonication. Solubility was then assessed by visual observation of the resulting dispersion (Clear/Cloudy and presence of particulates).

[7] = tested on: C57BL/6N male mice; test: Tail immersion test (nociception); type: in vivo
Protocol: Tail immersion test: Nociception tests were performed on male, awake C57BL/6N male mice (25-30 g weight; Janvier Labs, France). Animals were housed in groups of five per cage and kept under a 12 h/12 h light/dark cycle at 21±1° C. with ad libitum access to food and water. Experiments were performed during the light-on phase of the cycle. Mice were habituated to the testing room and equipment and handled for 1 week before starting behavioural experiments. The nociceptive thermal threshold of mice was determined using the tail immersion test. Mice were restrained in a grid pocket and their tail was immersed in a thermostated water bath. The latency (in sec) for tail withdrawal from hot water (47±0.5° C.) was taken as a measure of the nociceptive response.

[8] = CHO cells expressing GalR2, Fluo-4 AM, 37° C., read-out: EC50 Ca2+ production

| solubility at 2 min [6] [µM] | Compound | EC50 [1, 8] [nM] | % of activity at 1 μM [2] [%] | Non-specific adsorption of peptide [3] [%] | half-life at 1 μM [4] [h] | inhibition at 0.1 µM [5] [%] | solubility [6] [µM] | tail immersion withdrawal latency ([7]; 0.1 nmol icv, 15 min, baseline 9.99±0.5 sec) [s] | tail immersion withdrawal latency ([7]; 0.1 nmol icv, 30 min, baseline 9.99±0.5 sec) [s] | tail immersion withdrawal latency ([7]; 1 nmol icv, 15 min, baseline 10.12±0.59 sec) [s] | tail immersion withdrawal latency ([7]; 1 nmol icv, 30 min, baseline 10.12±0.59 sec) [s] | EC50 [1] [nM] |
| --- | --- | --- | --- | --- | --- | --- | --- | --- | --- | --- | --- | --- |
|  | CSCC[C@H](NC(=O)[C@H](C)NC(=O)[C@H](CCC(N)=O)NC(=O)[C@@H]1CCCN1C(=O)[C@@H](NC(=O)[C@H](Cc1c[nH]c2ccccc12)NC(=O)[C@H](CC(N)=O)NC(C)=O)[C@@H](C)O)C(=O)N[C@@H](CC(C)C)C(=O)N[C@@H](Cc1ccc(O)cc1)C(=O)N[C@@H](CC(C)C)C(=O)N[C@@H](CCCCN)C(=O)NCC(=O)N[C@@H](C)C(=O)N[C@@H](CCC(N)=O)C(=O)N[C@@H](CCCCNC(=O)CCC(F)(F)C(F)(F)C(F)(F)C(F)(F)C(F)(F)C(F)(F)C(F)(F)C(F)(F)F)C(N)=O [LE-128] | 2.3 ± 4 | 0 |  |  |  |  |  |  |  |  |  |
|  | CSCC[C@H](NC(=O)[C@H](C)NC(=O)[C@H](CCC(N)=O)NC(=O)[C@@H]1CCCN1C(=O)[C@@H](NC(=O)[C@H](Cc1c[nH]c2ccccc12)NC(=O)[C@H](CC(N)=O)NC(=O)[C@H](CCCNC(=N)N)NC(=O)CNC(=O)[C@H](CCCNC(=N)N)NC(=O)CCC(F)(F)C(F)(F)C(F)(F)C(F)(F)C(F)(F)C(F)(F)C(F)(F)C(F)(F)F)[C@@H](C)O)C(=O)N[C@@H](CC(C)C)C(=O)N[C@@H](Cc1ccc(O)cc1)C(=O)N[C@@H](CC(C)C)C(=O)N[C@@H](CCCCN)C(=O)NCC(=O)N[C@@H](C)C(=O)N[C@@H](CCC(N)=O)C(N)=O [LE-130] ({Propanoyl(3-C8F17)}-RGRNWTPQAMLYLKGAQ-NH2) | 0.089 ± 0.04 | 0 | 15 | 5.7 | 98.4 | > 100 |  |  |  |  |  |
|  | CSCC[C@H](NC(=O)[C@H](C)NC(=O)[C@H](CCC(N)=O)NC(=O)[C@@H]1CCCN1C(=O)[C@@H](NC(=O)[C@H](Cc1c[nH]c2ccccc12)NC(=O)[C@H](CC(N)=O)NC(=O)CCC(F)(F)C(F)(F)C(F)(F)C(F)(F)C(F)(F)C(F)(F)C(F)(F)C(F)(F)F)[C@@H](C)O)C(=O)N[C@@H](CC(C)C)C(=O)N[C@@H](Cc1ccc(O)cc1)C(=O)N[C@@H](CC(C)C)C(=O)N[C@@H](CCCCN)C(=O)NCC(=O)N[C@@H](C)C(=O)N[C@@H](CCC(N)=O)C(N)=O [LE-144] | 0.038 ± 0.008 | 0 | 42 | 2.5 | 100 | > 100 | 14.26 ± 0.93 | 14.06 ± 0.34 | 15.58 ± 0.61 | 13.94 ± 0.75 |  |
|  | CSCC[C@H](NC(=O)[C@H](C)NC(=O)[C@H](CCC(N)=O)NC(=O)[C@@H]1CCCN1C(=O)[C@@H](NC(=O)[C@H](Cc1c[nH]c2ccccc12)NC(=O)[C@H](CC(N)=O)NC(C)=O)[C@@H](C)O)C(=O)N[C@@H](CC(C)C)C(=O)N[C@@H](Cc1ccc(O)cc1)C(=O)N[C@@H](CC(C)C)C(=O)N[C@@H](CCCCN)C(=O)NCC(=O)N[C@@H](C)C(=O)N[C@@H](CCC(N)=O)C(=O)N[C@@H](CCCCNC(=O)C(CCCNC(=N)N)NC(=O)CNC(=O)C(CCCNC(=N)N)NC(=O)CCC(F)(F)C(F)(F)C(F)(F)C(F)(F)C(F)(F)C(F)(F)C(F)(F)C(F)(F)F)C(N)=O (some centres unmarked) [LE-146] |  |  |  |  |  |  |  |  |  |  | 8.4 ± 0.7 |
| > 100 | CSCC[C@H](NC(=O)[C@H](C)NC(=O)[C@H](CCC(N)=O)NC(=O)[C@@H]1CCCN1C(=O)[C@@H](NC(=O)[C@H](Cc1c[nH]c2ccccc12)NC(=O)[C@@H](N)CC(N)=O)[C@@H](C)O)C(=O)N[C@@H](CC(C)C)C(=O)N[C@@H](Cc1ccc(O)cc1)C(=O)N[C@@H](CC(C)C)C(=O)N[C@@H](CCCCN)C(=O)NCC(=O)N[C@@H](C)C(=O)N[C@@H](CCC(N)=O)C(N)=O [SPEXIN] |  | 0 |  | 2.52 | 68.3 |  |  |  |  |  |  |
